Patent publication US20030013643A1, “Prevention and treatment of streptococcal and staphylococcal infection” (priority 2000, published 2003)

Assays:
[1] = system: human keratinocytes; assay: Immunofluorescent staining of ZO-1 and E-cadherin at intercellular junctions of keratinocytes exposed to GAS; type: cell-based; conditions: pretreatment of keratinocytes; wild-type GAS
Protocol: Keratinocyte monolayers were fixed with 4% paraformaldehyde in phosphate buffered saline (PBS), washed, permeabilized with 0.1% Triton X-100 in PBS, then incubated with 0.5% bovine serum albumin in PBS to block non-specific binding sites prior to antibody staining. Primary antibodies included rabbit IgG antibody to GAS group A carbohydrate (ImmuCell, Portland, Me.) at 5 μg/ml, rat monoclonal anti-mouse CD44 (clone IM7.8. 1) (Schrager, H. M., et al., (1998) J. Clin. Invest. 101, 1708-1716) at 15 μg/ml, goat IgG anti-ezrin at 2 μg/ml (Santa Cruz Biotechnology, Santa Cruz, Calif.), goat IgG anti-Rac1 at 2 μg/ml (Santa Cruz Biotechnology), mouse anti-phosphotyrosine at 2 μg/ml (PY-Plus, Zymed Laboratories, Inc., San Francisco, Calif.), rabbit anti-ZO-1 at 2 μg/ml (Zymed), goat anti-E-cadherin at 2 μg/ml (Santa Cruz Biotechnology), and mouse anti-myc monoclonal antibody 9E10 (Santa Cruz Biotechnology). Secondary antibodies included, as appropriate, Texas red- or Alexa 660-conjugated anti-rabbit IgG (Molecular Probes, Eugene, Oreg.), Alexa 568-conjugated anti-rabbit, anti-goat, or anti-rat IgG (Molecular Probes), and FITC-conjugated anti-goat or anti-mouse IgG (Sigma), each diluted 1:250 in 0.5% BSA/PBS. Cellular actin was labeled with 165 nm phalloidin conjugated to Oregon green 514 or to Alexa 488 (Molecular Probes). […]

[2] = system: human keratinocytes; assay: Confocal microscopy of actin projections / lamellipodia in keratinocytes exposed to wild-type GAS; type: cell-based; conditions: incubation of keratinocytes with inhibitor
Protocol: GAS strains were 950771, an M-type 3 strain originally isolated from a child with necrotizing fasciitis, and 188, an isogenic acapsular mutant derived from 950771 (Ashbaugh, C. D., et al., (1998) J. Clin. Invest. 102, 550-560). Bacteria were cultured in Todd Hewitt broth (Difco, Sparks, Md.) to early exponential phase. For preparation of polarized keratinocyte monolayers, human squamous cell carcinoma cell line, SCC13, derived from cheek epidermis (Cline, P. R. & Rice, R. H. (1983) Cancer Res. 43, 3203-3207) was cultured to confluence in serum-free keratinocyte medium (Gibco BRL, Rockville, Md.) supplemented with 50 μg/ml bovine pituitary extract, 0.1 ng/ml epidermal growth factor and 0.3 mM calcium chloride (c-SFM). Certain experiments were performed also using cell monolayers prepared from OKP7 primary human keratinocytes (Crowe et al. (1991) Differentiation 48, 199-208). […] Once confluent, the integrity of the monolayer was assessed routinely by measuring permeability to sodium fluorescein (Tchao, R. (1988) Alternative Methods in Toxicology (eds. Goldberg, A. M.) 271-283 (Ann Liebert, N.Y.) and, in some experiments, by measuring transepithelial electrical resistance (McNamara, B. P., et al. (2001) J Clin Invest 107, 621-9). […]

[3] = system: wild-type GAS, strain 950771; assay: GAS translocation through polarized human keratinocyte monolayers; type: cell-based, Streptococcus pyogenes; conditions: for blocking of translocating GAS: pre-treated 30 minutes with 2 mg/ml, compared to untreated monolayers
Protocol: Human keratinocytes were cultured on 3.0 μm filters to allow polarization and establishment of functional intercellular tight junctions. Cells were infected as described previously with wild-type GAS, strain 950771. To assess the ability of exogenously added HA to inhibit the translocation of GAS through the keratinocyte monolayer, cells were pre-treated for 30 minutes with either 2 mg/ml of hyaluronic acid (HA) or another acidic polysaccharide, alginate (AL), at the same concentration. Aliquots of media from the lower chamber of infected keratinocyte monolayers were cultured on blood agar plates at 1 and 2 hours after inoculation with bacteria to assess the number of translocating bacteria. […] In contrast only 20% and 25% of the wild-type bacteria were blocked by AL at 1 and 2 hours, respectively.
GAS strains were 950771, an M-type 3 strain originally isolated from a child with necrotizing fasciitis, and 188, an isogenic acapsular mutant derived from 950771 (Ashbaugh, C. D., et al., (1998) J. Clin. Invest. 102, 550-560). Bacteria were cultured in Todd Hewitt broth (Difco, Sparks, Md.) to early exponential phase. For preparation of polarized keratinocyte monolayers, human squamous cell carcinoma cell line, SCC13, derived from cheek epidermis (Cline, P. R. & Rice, R. H. (1983) Cancer Res. 43, 3203-3207) was cultured to confluence in serum-free keratinocyte medium (Gibco BRL, Rockville, Md.) supplemented with 50 μg/ml bovine pituitary extract, 0.1 ng/ml epidermal growth factor and 0.3 mM calcium chloride (c-SFM). Certain experiments were performed also using cell monolayers prepared from OKP7 primary human keratinocytes (Crowe et al. (1991) Differentiation 48, 199-208). Keratinocytes were seeded at 5×10^5 cells per well onto polycarbonate Transwell membrane supports (12-well plates, 3.0 μm pore size; Costar, Corning, N.Y.) and cultured for 6-10 days at 37° C. with 5% CO2 in c-SFM, with daily medium changes. Once confluent, the integrity of the monolayer was assessed routinely by measuring permeability to sodium fluorescein (Tchao, R. (1988) Alternative Methods in Toxicology (eds. Goldberg, A. M.) 271-283 (Ann Liebert, N.Y.) and, in some experiments, by measuring transepithelial electrical resistance (McNamara, B. P., et al. (2001) J Clin Invest 107, 621-9).
Keratinocyte monolayers on Transwells were inoculated with GAS at a multiplicity of infection of 10 per keratinocyte. Monolayers were incubated at 37° C. with 5% CO2. The keratinocyte medium in the upper chamber was replaced two hours after adding GAS, and the Transwell inserts containing the keratinocytes were moved to new wells containing fresh medium every 2 hours to prevent overgrowth of translocated bacteria. Translocation was assessed by quantitative cultures of medium from the lower chamber at 2 hour intervals.
As a model of the movement of GAS from the pharyngeal mucosa or skin surface into underlying tissue, GAS translocation was studied in vitro through keratinocyte monolayers. Two hours after inoculation onto the surface of a confluent keratinocyte monolayer, wild-type GAS was detected in the culture medium below the membrane support, indicating migration of the organisms through the monolayer. At each of several intervals after inoculation, approximately 20 to 100 times as many GAS were recovered below monolayers inoculated with wild-type GAS compared to those inoculated with the acapsular mutant strain.(Figure 12a). […] Compared to wild-type GAS strain 950771, the efficiency of translocation was similar for wild-type GAS strains 87-282, a highly encapsulated M-type 18 strain, and for DLS003, a poorly encapsulated M-type 3 strain. Translocation of wild-type GAS was reduced by 78% at 1 hour in experiments in which the keratinocyte monolayers were pretreated with monoclonal antibody IM7.8.1 to block interaction of the GAS capsule with CD44 . […]

[4] = system: GAS; assay: GAS translocation through abraded human skin equivalent; type: cell-based, Streptococcus pyogenes; conditions: pre-treated at 2 mg/ml for 1 hour; 4 hour infection period
Protocol: To examine GAS translocation in a model system similar to normal human skin, we utilized pseudo-organ cultures of human skin equivalent. This material is made by constructing a “dermis” that consists of human fibroblasts cultured in a collagen matrix; human foreskin keratinocytes are seeded on top of the dermal equivalent and cultured under conditions that promote differentiation into a stratified squamous epithelium with a stratum comeum. The histology of the human skin equivalent is very similar to that of normal human skin except for the absence of non-keratinocyte elements such as blood vessels and hematopoietic cells, nerves, and hair follicles. Since intact human skin is highly resistant to GAS infection, we simulated minor trauma to the superficial epidermis by abrading the surface of the skin equivalent with a cytology brush to introduce breaks in the stratum corneum. GAS were inoculated onto the surface of abraded skin equivalent that had either been pre-treated with nothing, HA, or AL at 2 mg/ml for 1 hour and translocation through the tissue was monitored by culture of GAS from the basal surface of the skin equivalent at intervals. As depicted in FIG. 10, HA inhibited translocation GAS by 91% (solid bars). In comparison the AL control prevented only 14% of bacteria from translocating through the skin equivalent during the 4 hour infection period. […]

[5] = system: GAS; assay: GAS attachment to murine keratinocyte cell line PAM2.12 with exogenous hyaluronic acid; type: cell-based, Streptococcus pyogenes; conditions: control polysaccharide, concentration printed 1 /ml
Protocol: For bacterial adherence assays, keratinocytes were seeded at 10^5 cells per well in collagen-coated tissue culture wells (Nalge Nunc International, Naperville, Ill.), incubated for 3 days at 34° C. in 8% CO2, washed, and overlaid with medium containing 10^6 CFU of GAS per well. After incubation for 1 hour at 34° C. in 8% CO2 the keratinocyte monolayers were washed twice to remove nonadherent bacteria, then the number of cell-associated bacteria was determined by quantitative culture after releasing the keratinocytes with try spin and lysing them in sterile water, experiments testing the effects of exogenous hyaluronic acid on GAS adherence were performed using the mouse keratinocyte cell line, PAM 2.12 (Song, I. S. 2000, Exp. Dermatol. 9:42-52). Cells were seeded in collagen-coated tissue culture wells at 10^5 cells per well, cultured for 3 days at 37° C. in 5% CO2, then inoculated with 10^6 CFU of GAS per well in medium containing exogenous hyaluronic acid (from rooster comb, Sigma Chemicals, St. Louis, Mo.), no inhibitor, or a control polysaccharide, alginic acid, a high-molecular-weight polymer of mannuronic acid and guluronic acid (Protonal Durvillea Alginate, Pronova. Biopolymer, Inc., Portsmouth, N.H.). Cells were incubated for 45 minutes at 37° C. in 5% CO2, then processed for enumeration of adherent bacteria as described above. In experiments to test whether exogenous hyaluronic acid could promote dissociation of GAS attached to keratinocytes, GAS were allowed to attach to keratinocytes in the absence of inhibitor; after 45 minutes, the medium was removed and replaced with fresh medium containing hyaluronic acid, no inhibitor, or alginic acid. After 45 minutes of incubation, the number of adherent bacteria was enumerated as described above.
To investigate the specificity of the interaction between the GAS capsule and CD44 on epithelial cells, the ability of exogenous hyaluronic acid to compete with GAS for binding to murine keratinocytes was examined. Addition of exogenous hyaluronic acid to concentration 1 mg/ml[…], inhibited GAS attachment to the murine keratinocyte cell line PAM2.12 by >95% (P<0.03, FIG. 5). A concentration of 1 /ml alginic acid, another high molecular weight acidic polysaccharide, had no effect, supporting the hypothesis that adherence depends on a specific interaction between the GAS hyaluronic acid capsule and CD44 .
In addition to the 1 mg/ml concentration of hyaluronic acid, additional trials were performed as indicated above, with a range of concentrations of hyaluronic acid added to the cells. The concentrations tested included 4 mg/ml, 2 mg/ml, 1 mg/ml, 0.75 mg/ml, 0.5 mg/ml, 0.25 mg/ml and 0.1 mg/ml. The hyaluronic acid concentrations from 4 mg/ml to 0.25 mg/ml blocked GAS binding by greater than 70%. Hyaluronic acid concentrations from 4 mg/ml to 0.5 mg/ml blocked GAS binding by greater than 80% (FIG. 6).

Row | Compound | redistribution (loss) of ZO-1 and E-cadherin from intercellular junctions [1] | formation of lamellipodia in response to GAS [2] | reduction of maximum number of translocated GAS ([3]; 250 μM, at 4 hours) | earliest detectable translocation of wild-type GAS ([3]; 250 μM, delayed from 30 min without inhibitor) | inhibition of translocation of GAS through skin equivalent [4] | effect on GAS attachment to PAM2.12 [5] | blocking of translocating GAS ([3]; 1 hour after inoculation) | blocking of translocating GAS ([3]; 2 hours after inoculation)
1 | O=c1c(-c2ccc(O)cc2)coc2cc(O)cc(O)c12 [genistein] | prevented | inhibit formation of lamellipodia | approximately 80% | 1 h |  |  |  | 
2 | alginic acid |  |  |  |  | 14% | no effect | 20% | 25%
